Where two headings read alike, the source gives them in different places.
What was measured:
[1] = biological target: T1, CYP11A (Homo sapiens, UniProt P05108); test: Conversion reaction of substrates by CYP11A-expressing Escherichia coli; format: cell-based; details: for added substrate remained / accumulated amount of pregnenolone: same reaction as Example 6; for Conversion rate: same reaction as Example 6 (28° C., 5 hours)
T1 construct: A 1.45-kb CYP11A1 gene fragment amplified as a result of the above-described reaction; expressed in transfected cells; host or cells: Escherichia coli BL21(DE3), plasmid pCYP11A-ARX (strain BL21CYP11)
T1 sequence (P05108 40-521): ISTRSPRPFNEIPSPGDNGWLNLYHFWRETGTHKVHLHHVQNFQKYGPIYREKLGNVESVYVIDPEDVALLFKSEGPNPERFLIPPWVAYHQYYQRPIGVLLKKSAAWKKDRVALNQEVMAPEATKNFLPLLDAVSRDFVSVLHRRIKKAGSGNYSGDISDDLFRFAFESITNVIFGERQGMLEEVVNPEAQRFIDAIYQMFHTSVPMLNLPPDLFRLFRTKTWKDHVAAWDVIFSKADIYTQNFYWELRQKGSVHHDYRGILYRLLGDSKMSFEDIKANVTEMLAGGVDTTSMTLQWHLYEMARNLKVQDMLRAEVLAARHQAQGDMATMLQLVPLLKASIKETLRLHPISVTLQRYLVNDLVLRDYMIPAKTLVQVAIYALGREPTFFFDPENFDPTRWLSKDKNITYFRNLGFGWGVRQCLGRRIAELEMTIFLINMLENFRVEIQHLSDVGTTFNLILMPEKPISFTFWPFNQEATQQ
Description: (§1) The Escherichia coli expression strain BP215 was inoculated into 2 ml of an M9 mix medium (Na2HPO4: 0.68%, KH2PO4: 0.3%, NaCl: 0.05%, NH4C;: 0.01%, Casamino acid: 1%, D-Glucose: 0.4%, CaCl2: 0.1 mM, MgCl2: 1 mM, Thiamine: 0.002%, FeSO4: 0.1 mM, Carbenicillin: 0.005%), and it was then subjected to shaking culture at 30° C. for 17 hours, so as to obtain pre-culture solution. 0.25 ml of this pre-culture solution was inoculated into 25 ml of the main culture medium (Na2HPO4: 0.68%, KH2PO4: 0.3%, NaCl: 0.05%, NH4Cl: 0.01%, Casamino acid: 1%, CaCl2: 0.1 mM, MgCl2: 1 mM, Thiamine: 0.002%, FeSO4: 0.1 mM, Carbenicillin: 0.005%, Overnight Express™ solution: 7%, 5-Aminolevlic acid: 0.008%) using Overnight Express™ Autoinduction System (Novagen Cat. No. 71300-4), and it was then subjected to shaking culture at 25° C. for 24 hours. 5 ml of the obtained main culture solution was centrifuged (3500 rpm, 10 minutes) to obtain cell mass, and 1 ml of CV2 buffer (50 mM (pH) potassium phosphate buffer containing glycerol: 2%, carbenicillin: 0.005%, and isopropyl β-D-1-thiogalactopyranoside: 0.1 mM) was added to the obtained cell mass. Thereafter, 0.01 ml of the methanol solution of 1% 4-cholesten-3-one and 0.02 ml of an aqueous solution of 25% methyl-β-cyclodextrin were added to the mixed solution, and the obtained mixture was then shaken at 28° C. for 5 hours for the reaction. After completion of the reaction, 4 ml of methanol was added to the reaction solution, and they were then fully mixed. The obtained mixture was centrifuged, and the upper layer was then analyzed by HPLC.
A commercially available human testis cDNA (Origene Technologies, Inc.) was used as a template, and a CYP11A1 gene was amplified by PCR using a primer CYP11A-1F (SEQ ID NO: 19) and a primer CYP11A-2R (SEQ ID NO: 20), and also using KOD plus polymerase (TOYOBO Co., Ltd.). The temperature conditions applied during the PCR were 94° C./3 min, 30 cycles of (94° C./30 sec, 55° C./60 sec, and 72° C./90sec), and 72° C./5 min.
A 1.45-kb CYP11A1 gene fragment amplified as a result of the above-described reaction was purified using QIAquick PCR purification Kit (manufactured by QIAGEN), and it was then digested with Nde I and Spe I. Thereafter, the digest was ligated to Escherichia coli expression vector pT7NS-camAB, using T4 DNA ligase, and Escherichia coli DH5α was then transformed with the obtained expression vector, so as to construct a plasmid pCYP11A-camAB. Subsequently, using T4 DNA ligase, the previously prepared bovine-derived adrenodoxin reductase protein-adrenodoxin gene (adr-adx) fragment was inserted into and ligated to each of the Spe I and Bam HI sites of the above-described plasmid, and Escherichia coli DH5a was then transformed with the obtained plasmid, so as to construct plasmid pCYP11A-ARX. Thereafter, Escherichia coli BL21(DE3) was transformed with the thus constructed plasmid, and the obtained cell strain was named as BL21CYP11. The used adx-adr fragment was amplified by PCR with a plasmid pKARX (Sawada et. al. Eur. J. Biochem. 265, 950-956,1999) as a template, using primer bAdxR-1F (SEQ ID NO: 21) and primer bAdx-2R (SEQ ID NO: 22), and also using KOD plus polymerase (manufactured by TOYOBO Co., Ltd.). The temperature condition applied during the PCR were 94° C./3 min, 25 cycles of (94° C./30 sec, 60° C./30 sec, and 72° C./120sec), and 72° C./5 min.
Each substrate was subjected to the same reaction as that of Example 6, separately, and the reaction solution was then subjected to liquid separation using 1 ml of ethyl acetate. The reaction product and the substrate were extracted, and were then analyzed by HPLC.

[2] = test system: CYP204A1; details: for Conversion rate: strain BP172, same reaction as Example 6 (28° C., 5 hours); for accumulated amount of pregnenolone / added substrate remained: strain BP172, same reaction as Example 6
Description: Novosphingobium aromaticivorans (ATCC 700278) was inoculated into an L medium, and it was then cultured at 30° C. for 2 days. Thereafter, genomic DNA was extracted from the cell mass obtained in the same manner as that of Example 1. A fragment comprising a CYPSS204A1 gene and a ferredoxin gene located downstream thereof was amplified from the above-described genomic DNA by using a primer CYP-5F (SEQ ID NO: 9) and a primer CYP-6R (SEQ ID NO: 10) and also using La Taq polymerase (manufactured by Takara Bio INC.). The temperature conditions applied during this operation were 94° C./3 min, 30 cycles of (98° C./20 sec, 63° C./30 sec, and 68° C./2 min), and 72° C./5 min.
Escherichia coli BL21(DE3) was transformed with this plasmid, and the obtained cell strain was named as BP172.
as §1
As substrates, 4-cholesten-3-one, cholesterol, 7-dehydrocholesterol, ergosterol, 13-sitosterol, stigmasterol, campesterol, desmosterol, (20S)-20-hydroxycholest-4-en-3-one, (22R)-22-hydroxycholest-4-en-3-one, (20R,22R)-20,22-dihydroxycholest-4-en-3-one, and (20R,22S)-20,22-dihydroxycholest-4-en-3-one were used. Each substrate was subjected to the same reaction as that of Example 6, separately, and the generated product was then analyzed by HPLC.

[3] = test system: CYPSS204A; test: Conversion reaction of substrates by Escherichia coli expression strain BP215; format: cell-based, Sphingomonas subterranea NBRC 16086
Description: The temperature conditions applied during the PCR were 95° C./5 min, 30 cycles of (98° C./30 sec, 60° C./30 sec, and 68° C./2 min), and 68° C./10 min.
Analysis conditions: Using Chromolith speed rod RP18e (50×4.6 mm) column, 50%→100% CH3CN gradient (0 to 3 min) and 100% CH3CN (3 to 8 min) were used as a mobile phase, and detection was carried out at a flow rate of 2 ml/min using CAD™ (Charged Aerosol Detection) and MS.

[4] = strain BP215, 28° C., 5 hours, to progesterone, pregnenolone or 7-dehydropregnenolone

Structure (SMILES)	added substrate remained [1] [%]	Conversion rate [1] [%]	Conversion rate [2] [%]	added substrate remained ([3]; strain BP215, 28° C., 5 hours) [%]	Conversion rate [3, 4] [%]	accumulated amount of pregnenolone [1] [mg/L]	accumulated amount of pregnenolone [2] [mg/L]	added substrate remained [2] [%]	accumulated amount of pregnenolone ([3]; strain BP215, 28° C., 5 hours) [mg/L]	Conversion rate ([3]; strain BP215, 28° C., 5 hours, to progesterone, pregnenolone or 7-dehydropregnenolone, listed as 20-OH) [%]	accumulated amount of side-chain cleavage product ([3]; strain BP215, 28° C., 5 hours) [mg/L]	Conversion rate [3] [%]	Conversion rate ([1]; listed as Cam) [%]
CC(C)CC[C@@H](O)[C@](C)(O)[C@H]1CC[C@H]2[C@@H]3CCC4=CC(=O)CC[C@]4(C)[C@H]3CC[C@]12C [(20R,22R)-20,22-dihydroxycholest-4-en-3-one]	95	4.3	61.3	0.6	38.1	–	–	–	–	–	–	–	–
CC(C)CCC[C@](C)(O)[C@H]1CC[C@H]2[C@@H]3CC=C4C[C@@H](O)CC[C@]4(C)[C@H]3CC[C@@]21C [(20S)-20-hydroxy-cholesterol]	98.8	16.3	68.2	0	89.2	16.3	68.2	25.2	89.2	–	–	–	–
CC(C)CC[C@@H](O)[C@@H](C)[C@H]1CC[C@H]2[C@@H]3CC=C4C[C@@H](O)CC[C@]4(C)[C@H]3CC[C@]12C [(22R)-22-hydroxy-cholesterol]	78.6	28.0	69.5	14.8	80	28.0	69.5	42.8	80.0	–	–	–	–
CC(C)CCC[C@](C)(O)[C@H]1CC[C@H]2[C@@H]3CCC4=CC(=O)CC[C@]4(C)[C@H]3CC[C@@]21C [(20S)-20-hydroxycholest-4-en-3-one]	100	0	63.9	4.8	41.0	–	–	–	–	41	–	–	–
CC(C)=CCC[C@@H](C)[C@H]1CC[C@H]2[C@@H]3CC=C4C[C@@H](O)CC[C@]4(C)[C@H]3CC[C@]12C [desmosterol]	99.6	1.2	66.1	21.3	71.7	–	–	–	–	–	71.7	–	–
CC(C)CCC[C@@H](C)[C@H]1CC[C@H]2[C@@H]3CC=C4C[C@@H](O)CC[C@]4(C)[C@H]3CC[C@]12C [cholesterol]	99	2.6	71.2	3.7	68.2	–	–	–	–	–	68.2	–	–
CC(C)[C@@H](C)/C=C/[C@@H](C)[C@H]1CC[C@H]2C3=CC=C4C[C@@H](O)CC[C@]4(C)[C@H]3CC[C@]12C [ergosterol]	100	0	–	–	–	–	–	–	–	–	2.8	2.8	–
CC(C)[C@H](C)CC[C@@H](C)[C@H]1CC[C@H]2[C@@H]3CC=C4C[C@@H](O)CC[C@]4(C)[C@H]3CC[C@]12C [campesterol]	99.1	1.0	31.3	25.5	27.9	–	–	–	–	–	27.9	–	1
CC(C)CC[C@@H](O)[C@](C)(O)[C@H]1CC[C@H]2[C@@H]3CC=C4C[C@@H](O)CC[C@]4(C)[C@H]3CC[C@]12C [(20R,22R)-20,22-dihydroxy-cholesterol]	51.6	32.3	51.6	0	53.0	32.3	51.6	0	53.0	–	–	–	–
CC[C@H](/C=C/[C@@H](C)[C@H]1CC[C@H]2[C@@H]3CC=C4C[C@@H](O)CC[C@]4(C)[C@H]3CC[C@]12C)C(C)C [stigmasterol]	100	0	6.5	70.8	5.8	–	–	–	–	–	5.8	–	–
CC(C)CCC[C@@H](C)[C@H]1CC[C@H]2C3=CC=C4C[C@@H](O)CC[C@]4(C)[C@H]3CC[C@]12C [7-dehydrocholesterol]	99.2	0.7	28.5	54	34.3	–	–	–	–	–	34.3	–	–
